According to US11066455B2, “Tmem100 peptides and variants thereof and their use in treating or preventing diseases or conditions” (The Johns Hopkins University, priority 2014, dated 2021):

Key:
[1] = test system: ongoing neuropathic pain in SNL rats; assay: Conditioned place preference test for ongoing pain in SNL rats; type: in vivo, rat; conditions: i.p.
Excerpt: Ongoing, or spontaneous, pain, which is most bothersome to patients, is difficult to treat and difficult to study in animals. The conditioned place preference test has been successfully developed to reveal the presence of non-evoked, ongoing pain and pain relief based on the preference of an animal for the context paired with a pain-relief treatment. The conditioned place preference can also capture the aversive aspects of pain. Strikingly, many studies have shown that the rodent conditioned place preference test accurately reflects the effectiveness of human clinical treatments. Therefore, this test is a powerful approach to investigate the potential effectiveness of new treatments and mechanisms for relief of ongoing pain. Two previous studies have examined the role of TRPA1 in ongoing pain by the conditioned place preference test. […] Because the antagonists used in those studies (HC030031 and Chem5861528) target TRPA1 monomers, it is possible that T100-Mut can inhibit ongoing pain by modulating the TRPA1/V1 complex. This possibility was tested in rodents with SNL-induced ongoing pain using the conditioned place preference test. […] Systemic administration of gabapentin, an analgesic that is known to alleviate neuropathic pain, was used as a positive control (FIG. 16B).

[2] = biological target: TRPA1 (expressed in heterologous cells: CHO, HEK293T); assay: cell-based or functional assay
[3] = test system: neuropathic mechanical hypersensitivity in SNL rats; type: in vivo, rat
Excerpt: An modified L5 SNL model was produced as described in previously (He et al., 2014; Shechter et al., 2013). Male Sprague-Dawley rats (200-350 g, Harlan, Indianapolis, Ind.) were anesthetized with 2% isoflurane. The left L5 spinal nerve was ligated with a 6-0 silk suture and cut distally. The muscle layer was closed with 4-0 chromic gut suture and the skin closed with metal clips. For intrathecal catheter implantation, a small slit was cut in the atlanto-occipital membrane of rats, into which a saline-filled piece of PE-10 tubing (6-7 cm) was inserted (He et al., 2014). […] Hypersensitivity to punctuate mechanical stimulation was determined with the up-down method by using a series of von Frey filaments (0.38-15.1 g) applied for 4-6 seconds to the test area on the plantar surface of the hindpaw (Chaplan et al., 1994; He et al., 2014). The PWT was determined according to the formula provided by Dixon (Dixon, 1980). […] HC-030031 was purchased from Tocris Bioscience (Bristol, UK). Both drugs were dissolved in 10% dimethylsulfoxide (DMSO), 5% Tween 80 and 85% sterile saline solution. The final working solution which was injected by intrathecal route contained <1% DMSO. The number of animals used in each study was based on experience with similar studies and power analysis calculations. Animals were randomized to the different treatment groups and blinded the experimenter to drug treatment to reduce selection and observation bias. After the experiments were completed, no data point was excluded. STATISTICA 6.0 software (StatSoft, Inc., Tulsa, Okla.) was used to conduct all statistical analyses. The Tukey honestly significant difference (HSD) post-hoc test was used to compare specific data points. Bonferroni correction was applied for multiple comparisons. Two-tailed tests were performed, and data are expressed as mean±SEM; P<0.05 was considered significant in all tests.
The sequence from the last 28 amino acids of the C-terminus of the Tmem100-3Q mutant protein was synthesized and myristoylated at its N-terminus (myr-[…]-COOH) (SEQ ID NO: 8) by Twentyfirst Century Biochemicals. […] For the calcium imaging assay, the peptides were added to the calcium imaging buffer with a final concentration of 200 nM and incubated for at least […] at room temperature. For the mice behavioral assays, the peptides (5 μL, 2 mM) were injected subcutaneously in the hindpaw at least 30 minutes before testing. For the rat behavior assays, human T100-3Q (h-T100), a palmitoylated cell permeable peptide mutated based on the C terminus of human sequence in Tmem100, was applied. The sequence is Palmitoyl-[…]-COOH (SEQ ID NO: 7).

Sequence of TRPA1 (expressed in heterologous cells: CHO, HEK293T) (Q8BLA8 whole entry): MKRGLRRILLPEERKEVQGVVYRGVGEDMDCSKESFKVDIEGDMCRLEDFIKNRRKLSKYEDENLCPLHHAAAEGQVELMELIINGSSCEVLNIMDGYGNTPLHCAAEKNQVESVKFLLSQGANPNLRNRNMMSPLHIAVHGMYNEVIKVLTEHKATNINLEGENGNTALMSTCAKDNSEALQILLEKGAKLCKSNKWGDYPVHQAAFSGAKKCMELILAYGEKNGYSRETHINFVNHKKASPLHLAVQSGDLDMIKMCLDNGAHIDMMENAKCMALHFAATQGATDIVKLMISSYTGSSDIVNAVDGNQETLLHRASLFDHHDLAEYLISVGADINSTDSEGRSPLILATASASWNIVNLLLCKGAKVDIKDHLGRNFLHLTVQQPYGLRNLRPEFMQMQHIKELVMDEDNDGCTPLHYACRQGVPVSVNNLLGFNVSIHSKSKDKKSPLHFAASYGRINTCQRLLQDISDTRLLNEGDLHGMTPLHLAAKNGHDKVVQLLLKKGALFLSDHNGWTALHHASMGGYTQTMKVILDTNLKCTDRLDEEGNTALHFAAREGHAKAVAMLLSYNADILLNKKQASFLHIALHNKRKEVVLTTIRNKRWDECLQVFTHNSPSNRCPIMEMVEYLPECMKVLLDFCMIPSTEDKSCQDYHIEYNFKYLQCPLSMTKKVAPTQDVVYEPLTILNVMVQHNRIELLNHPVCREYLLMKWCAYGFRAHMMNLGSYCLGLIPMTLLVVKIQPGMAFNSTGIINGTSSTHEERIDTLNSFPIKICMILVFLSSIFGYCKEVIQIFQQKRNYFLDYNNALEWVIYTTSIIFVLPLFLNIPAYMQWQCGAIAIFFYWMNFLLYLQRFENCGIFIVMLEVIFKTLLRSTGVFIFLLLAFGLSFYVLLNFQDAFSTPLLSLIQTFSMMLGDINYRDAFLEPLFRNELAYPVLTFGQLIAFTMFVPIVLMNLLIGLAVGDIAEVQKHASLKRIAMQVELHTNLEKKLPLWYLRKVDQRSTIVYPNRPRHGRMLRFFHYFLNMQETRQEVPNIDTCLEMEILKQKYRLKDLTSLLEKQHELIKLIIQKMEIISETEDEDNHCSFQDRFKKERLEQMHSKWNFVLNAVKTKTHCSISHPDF

With `NCC1(CC(=O)O)CCCCC1` [gabapentin, reference compound] the “conditioned place preference: time in gabapentin-paired chamber, SNL rats” value ([1]; 60 mg/kg, saline-paired chamber as comparison) was “significantly increased” and the “chamber preference in sham-operated rats” value ([1]; gabapentin 60 mg/kg, sham-operated) was “did not induce chamber preference”.
“TRPV1 (expressed in heterologous cells: CHO, HEK293T) (receptor)” gave an MO (10 µM)-evoked Ca2+ influx, CHO cells, with Tmem100-3Q co-expressed (1:1:4) [2] of 321 nM, an MO (10 µM)-gated whole-cell current density, CHO cells, with Tmem100-3Q co-expressed (1:1:4) [2] of 39.2 pA/pF and an MO (10 µM)-induced single-channel activity (NPo), CHO cells, with Tmem100-3Q co-expressed (1:1:4) [2] of 0.16. The MO (10 µM)-induced single-channel activity (NPo), CHO cells, with wild-type Tmem100 co-expressed (1:1:4) [2] was 1.05.
With `CC(C)c1ccc(NC(=O)Cn2cnc3c2c(=O)n(C)c(=O)n3C)cc1` [HC-030031, reference compound] the “contralateral PWT after drug injection” value ([3]; intrathecal 10 μl) was “did not change significantly”, the “ipsilateral paw withdrawal threshold (PWT) vs pre-drug” value ([3]; intrathecal 10 μl, h-T100 10-100 μM, HC-030031 10-200 μM, scrambled 100 μM) was “increased” and the EC50 ([3]; intrathecal, 10 μl, SNL rats, read-out: EC50 for inhibiting pain) was 58.2 µM.
